# From ChEMBL document CHEMBL5154789 (J Med Chem, 2022)
# The source made the active and inactive calls. No cut-off for these calls is given here.
# Experiments:
# [1] = target: Fibroblast growth factor receptor 2 (Homo sapiens, UniProt P21802)
# Description: Inhibition of FGFR2 (unknown orgin) using Tyr 04 peptide as substrate incubated for 1 hr in presence of 5 uM ATP by FRET based Z'-LYTE assay
# [2] = target: Fibroblast growth factor receptor 3 (Homo sapiens, UniProt P22607)
# Description: Inhibition of FGFR3 (unknown orgin) using Tyr 04 peptide as substrate incubated for 1 hr in presence of 75 uM ATP by FRET based Z'-LYTE assay
# BaF3 [3] = assay: cells; details: Mus musculus, BaF3, 72 h
# MDA-MB-453 = assay: cells; details: Homo sapiens, MDA-MB-453, 120 h
# Description: Antiproliferative activity against human MDA-MB-453 cells assessed as inhibition of cell growth incubated for 5 days by SRB assay
# Hep 3B2 = assay: cells; details: Homo sapiens, Hep3B, 120 h
# Description: Antiproliferative activity against human Hep3B cells assessed as inhibition of cell growth incubated for 5 days by SRB assay
# NCI-H1299 = assay: cells; details: Homo sapiens, NCI-H1299, 120 h
# Description: Antiproliferative activity against human NCI-H1299 cells assessed as inhibition of cell growth incubated for 5 days by SRB assay
# [4] = target: Fibroblast growth factor receptor 1 (Homo sapiens, UniProt P11362)
# Sequence of Fibroblast growth factor receptor 1 (P11362 whole entry, the tested form may be a part): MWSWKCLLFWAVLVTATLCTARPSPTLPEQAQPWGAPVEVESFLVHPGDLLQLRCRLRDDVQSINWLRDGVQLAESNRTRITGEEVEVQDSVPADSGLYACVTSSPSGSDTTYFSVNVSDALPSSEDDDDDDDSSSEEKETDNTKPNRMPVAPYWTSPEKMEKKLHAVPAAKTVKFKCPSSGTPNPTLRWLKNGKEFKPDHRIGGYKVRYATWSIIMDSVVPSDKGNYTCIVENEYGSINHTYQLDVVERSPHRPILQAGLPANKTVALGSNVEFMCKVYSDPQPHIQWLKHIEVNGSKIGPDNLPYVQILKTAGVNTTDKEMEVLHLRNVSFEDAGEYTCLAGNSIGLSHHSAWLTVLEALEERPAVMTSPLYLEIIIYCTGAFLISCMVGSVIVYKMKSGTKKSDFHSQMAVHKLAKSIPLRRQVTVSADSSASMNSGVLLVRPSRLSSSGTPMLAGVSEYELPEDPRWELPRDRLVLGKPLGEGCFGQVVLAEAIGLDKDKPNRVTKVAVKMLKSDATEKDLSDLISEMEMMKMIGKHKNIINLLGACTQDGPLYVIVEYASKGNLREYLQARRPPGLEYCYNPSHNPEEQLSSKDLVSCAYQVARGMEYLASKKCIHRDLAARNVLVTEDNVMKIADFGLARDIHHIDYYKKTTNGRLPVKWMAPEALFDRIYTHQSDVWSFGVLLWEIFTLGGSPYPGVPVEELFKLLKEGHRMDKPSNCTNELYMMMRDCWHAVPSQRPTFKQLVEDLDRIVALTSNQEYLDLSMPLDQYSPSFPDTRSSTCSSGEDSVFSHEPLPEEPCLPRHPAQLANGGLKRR
# Description: Inhibition of FGFR1 (unknown orgin) using Tyr 04 peptide as substrate incubated for 1 hr in presence of 25 uM ATP by FRET based Z'-LYTE assay
# [5] = target: Fibroblast growth factor receptor 4 (Homo sapiens, UniProt P22455); assay: Inhibition of N-terminal 6His-tagged FGFR4 (unknown orgin) (445 to 753 residues) expressed in Rosetta (NEB) cells using Tyr 04 peptide as substrate incubated for 1 hr in presence of 150 uM ATP by FRET based Z'-LYTE assay
# Sequence of Fibroblast growth factor receptor 4 (P22455 whole entry, the tested form may be a part): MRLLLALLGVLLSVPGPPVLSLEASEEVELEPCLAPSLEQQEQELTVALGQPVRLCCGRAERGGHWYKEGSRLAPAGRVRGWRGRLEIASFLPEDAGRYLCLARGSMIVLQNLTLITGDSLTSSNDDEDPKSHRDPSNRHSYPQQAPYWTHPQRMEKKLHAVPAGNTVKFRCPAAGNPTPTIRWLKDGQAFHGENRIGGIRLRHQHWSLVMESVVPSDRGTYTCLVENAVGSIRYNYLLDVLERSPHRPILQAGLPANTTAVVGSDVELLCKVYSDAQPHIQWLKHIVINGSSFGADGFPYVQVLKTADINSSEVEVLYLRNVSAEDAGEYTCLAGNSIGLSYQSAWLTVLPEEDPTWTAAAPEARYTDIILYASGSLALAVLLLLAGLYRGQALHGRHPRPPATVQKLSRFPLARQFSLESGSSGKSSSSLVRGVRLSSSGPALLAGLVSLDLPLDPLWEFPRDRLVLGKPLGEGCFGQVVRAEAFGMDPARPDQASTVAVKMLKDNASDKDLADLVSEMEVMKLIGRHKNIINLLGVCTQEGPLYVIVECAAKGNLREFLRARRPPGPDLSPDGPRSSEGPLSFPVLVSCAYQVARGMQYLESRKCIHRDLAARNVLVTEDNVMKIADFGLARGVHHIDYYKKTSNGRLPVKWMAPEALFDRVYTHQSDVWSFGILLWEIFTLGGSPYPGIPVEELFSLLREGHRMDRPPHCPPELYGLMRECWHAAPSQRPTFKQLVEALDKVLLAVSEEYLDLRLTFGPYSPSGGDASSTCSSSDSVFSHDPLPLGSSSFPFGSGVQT
# BaF3 [6] = assay: Antiproliferative activity against mouse BAF3 cells expressing FGFR4 V550M mutant assessed as inhibition of cell growth incubated for 72 hrs by CCK8 assay; assay type: functional, cell-based; details: BaF3, 72 h
# [7] = Antiproliferative activity against human JHH7 cells assessed as inhibition of cell growth incubated for 5 days by SRB assay; assay type: functional, cell-based; details: JHH7, 120 h
# Huh-7 [8] = assay: Antiproliferative activity against human Huh-7 cells assessed as inhibition of cell growth incubated for 5 days by SRB assay; assay type: functional, cell-based; details: Huh-7, 120 h
# BaF3 [9] = assay: Antiproliferative activity against mouse BAF3 cells assessed as inhibition of cell growth incubated for 72 hrs by CCK8 assay; assay type: functional, cell-based; details: BaF3, 72 h
# BaF3 [10] = assay: cells; details: Mus musculus, BaF3, 72 h; remark: listed apart in the source
# [11] = target: Fibroblast growth factor receptor 4 (Mus musculus) (UniProt Q03142); assay: Inhibition of wild type FGFR4 phosphorylation in mouse BAF3 cells at 30 nM incubated for 6 hrs by Western blot analysis; assay type: cell-based
# Sequence of Fibroblast growth factor receptor 4 (Mus musculus) (Q03142 17-799 limits assumed): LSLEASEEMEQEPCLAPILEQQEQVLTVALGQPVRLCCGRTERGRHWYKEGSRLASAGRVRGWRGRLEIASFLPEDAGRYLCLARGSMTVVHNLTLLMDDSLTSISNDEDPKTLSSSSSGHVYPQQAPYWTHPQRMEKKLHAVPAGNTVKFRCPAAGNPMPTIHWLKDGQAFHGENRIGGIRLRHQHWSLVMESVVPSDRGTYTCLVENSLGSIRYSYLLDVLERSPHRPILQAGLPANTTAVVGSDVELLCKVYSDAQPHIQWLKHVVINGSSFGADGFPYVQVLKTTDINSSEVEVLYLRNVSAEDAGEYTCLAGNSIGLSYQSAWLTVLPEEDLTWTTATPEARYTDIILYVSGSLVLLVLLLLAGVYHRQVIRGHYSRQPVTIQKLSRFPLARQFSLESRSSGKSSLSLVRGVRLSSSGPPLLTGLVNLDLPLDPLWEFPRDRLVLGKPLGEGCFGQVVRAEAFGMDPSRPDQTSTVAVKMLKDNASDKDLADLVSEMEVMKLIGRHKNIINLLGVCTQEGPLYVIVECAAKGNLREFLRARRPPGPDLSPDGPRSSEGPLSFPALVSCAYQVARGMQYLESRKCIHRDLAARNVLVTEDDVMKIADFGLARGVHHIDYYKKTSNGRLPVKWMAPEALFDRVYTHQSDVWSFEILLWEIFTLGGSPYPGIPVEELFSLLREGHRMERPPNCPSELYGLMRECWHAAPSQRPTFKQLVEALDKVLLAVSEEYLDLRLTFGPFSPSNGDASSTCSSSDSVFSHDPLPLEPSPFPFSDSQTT
# [12] = target: Fibroblast growth factor receptor 4 (Mus musculus) (UniProt Q03142); assay: Inhibition of wild type FGFR4 phosphorylation in mouse BAF3 cells assessed as reduction in FRS2 level at 3 to 90 nM incubated for 6 hrs by Western blot analysis; assay type: cell-based; details: dose 3-90 nM
# [13] = target: Fibroblast growth factor receptor 4 (Mus musculus) (UniProt Q03142); assay: Inhibition of wild type FGFR4 phosphorylation in mouse BAF3 cells assessed as reduction in MAPK level at 3 to 90 nM incubated for 6 hrs by Western blot analysis; assay type: cell-based; details: dose 3-90 nM
# BaF3 [14] = assay: Inhibition of FGFR4 V550L mutant signalling in mouse BAF3 cells at 3 to 90 nM incubated for 6 hrs by Western blot analysis; assay type: cell-based; details: dose 3-90 nM
# Huh-7 [15] = assay: Antitumor activity against human Huh-7 cells xenografted in ip dosed BALB/c nude mouse assessed as tumor growth inhibition administered twice daily for 17 continuous days and measured every 2 days; assay type: functional, organism-based; details: time 17.0 day, DDE = dose-dependent effect
# Huh-7 [16] = assay: Antitumor activity against human Huh-7 cells xenografted in BALB/c nude mouse assessed as tumor growth inhibition at 20 mg/kg, ip administered twice daily for 17 continuous days and measured every 2 days; assay type: functional; details: Huh-7, 408 h, time 17 day, read-out: TGI
# Huh-7 [17] = assay: Antitumor activity against human Huh-7 cells xenografted in BALB/c nude mouse assessed as tumor growth inhibition at 40 mg/kg, ip administered twice daily for 17 continuous days and measured every 2 days; assay type: functional; details: Huh-7, 408 h, time 17 day, read-out: TGI
# [18] = Toxicity in BALB/c nude mouse xenografted with human Huh-7 cells assessed as loss of body weight at 20 to 40 mg/kg, […] administered twice daily for 17 days and measured every 2 days; assay type: organism-based; details: in vivo, 408 h, dose 20-40 mg/kg, time 17 day
# Sequence of Fibroblast growth factor receptor 2 (P21802 whole entry): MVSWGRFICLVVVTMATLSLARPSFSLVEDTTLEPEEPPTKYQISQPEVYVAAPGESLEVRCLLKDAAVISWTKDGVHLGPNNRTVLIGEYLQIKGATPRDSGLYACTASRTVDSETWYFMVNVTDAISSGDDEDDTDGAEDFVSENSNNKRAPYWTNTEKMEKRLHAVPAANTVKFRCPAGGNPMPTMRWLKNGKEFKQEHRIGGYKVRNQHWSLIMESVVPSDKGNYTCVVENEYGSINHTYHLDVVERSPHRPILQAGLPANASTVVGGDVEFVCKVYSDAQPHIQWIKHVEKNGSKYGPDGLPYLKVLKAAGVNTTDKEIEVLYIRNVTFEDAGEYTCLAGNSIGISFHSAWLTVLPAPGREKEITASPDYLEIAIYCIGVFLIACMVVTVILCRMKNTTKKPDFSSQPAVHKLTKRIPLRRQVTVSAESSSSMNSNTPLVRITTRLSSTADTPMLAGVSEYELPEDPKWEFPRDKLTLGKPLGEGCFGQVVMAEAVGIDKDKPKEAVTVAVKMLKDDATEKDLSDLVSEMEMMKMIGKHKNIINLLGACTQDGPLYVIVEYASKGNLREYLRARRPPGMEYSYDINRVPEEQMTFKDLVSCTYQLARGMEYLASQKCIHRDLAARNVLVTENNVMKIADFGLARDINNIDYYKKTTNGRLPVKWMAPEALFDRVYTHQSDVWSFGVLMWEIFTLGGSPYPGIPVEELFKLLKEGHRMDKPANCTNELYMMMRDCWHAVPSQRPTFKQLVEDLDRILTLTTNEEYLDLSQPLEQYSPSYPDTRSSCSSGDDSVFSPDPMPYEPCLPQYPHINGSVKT
# Sequence of Fibroblast growth factor receptor 3 (P22607 whole entry): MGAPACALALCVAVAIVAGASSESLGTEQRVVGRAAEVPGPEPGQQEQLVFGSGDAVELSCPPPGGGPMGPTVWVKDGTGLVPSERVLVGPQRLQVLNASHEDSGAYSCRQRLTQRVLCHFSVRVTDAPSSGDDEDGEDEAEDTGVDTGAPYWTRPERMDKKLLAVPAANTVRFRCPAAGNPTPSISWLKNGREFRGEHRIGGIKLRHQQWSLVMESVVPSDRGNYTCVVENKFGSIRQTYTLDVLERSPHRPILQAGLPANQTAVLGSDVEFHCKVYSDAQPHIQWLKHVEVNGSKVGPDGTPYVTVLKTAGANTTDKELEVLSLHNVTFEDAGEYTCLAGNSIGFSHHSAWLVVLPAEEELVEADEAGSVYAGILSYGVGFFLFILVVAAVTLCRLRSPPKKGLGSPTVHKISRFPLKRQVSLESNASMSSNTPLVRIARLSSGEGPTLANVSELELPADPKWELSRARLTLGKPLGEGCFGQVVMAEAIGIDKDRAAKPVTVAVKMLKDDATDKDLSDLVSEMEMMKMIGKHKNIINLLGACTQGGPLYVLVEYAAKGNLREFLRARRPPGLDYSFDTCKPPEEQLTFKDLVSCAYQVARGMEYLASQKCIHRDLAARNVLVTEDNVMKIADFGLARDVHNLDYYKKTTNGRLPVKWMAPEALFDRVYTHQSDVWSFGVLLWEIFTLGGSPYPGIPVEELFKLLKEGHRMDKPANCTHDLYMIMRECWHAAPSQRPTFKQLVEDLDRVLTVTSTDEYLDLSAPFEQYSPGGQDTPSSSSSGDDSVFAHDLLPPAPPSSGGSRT
Compound,IC50 [1] [nM],IC50 [2] [nM],IC50 (BaF3 [3]) [nM],IC50 (MDA-MB-453) [nM],IC50 (Hep 3B2) [nM],IC50 (NCI-H1299) [nM],also measured
C=CC(=O)Nc1cccc(F)c1Nc1n[nH]c2ccc(O[C@H](C)c3c(Cl)cncc3Cl)cc12,> 10000,> 10000,7.6,190,710,3800,
C=CC(=O)Nc1cccc(C2CC2)c1Nc1n[nH]c2ccc(O[C@H](C)c3c(Cl)cncc3Cl)cc12,> 10000,> 10000,520,7550,15300,5170,IC50 [5]: > 10000 nM
C=CC(=O)N[C@H]1CCCC[C@H]1Nc1n[nH]c2ccc(O[C@H](C)c3c(Cl)cncc3Cl)cc12,> 10000,> 10000,,,,,IC50 [5]: > 10000 nM
C=CC(=O)Nc1cccc(C)c1Nc1n[nH]c2ccc(O[C@H](C)c3c(Cl)cncc3Cl)cc12,> 10000,> 10000,2,620,2700,9120,
C=CC(=O)Nc1cc(N2CCOCC2)ccc1Nc1n[nH]c2ccc(O[C@H](C)c3c(Cl)cncc3Cl)cc12,> 10000,> 10000,15,750,730,5310,
C=CC(=O)Nc1cc(N2CCN(S(C)(=O)=O)CC2)cc(F)c1Nc1c[nH]c2ccc(O[C@H](C)c3c(Cl)cncc3Cl)cc12,> 10000,> 10000,6.5,33,110,2760,IC50 [4]: > 10000 nM
CCC(=O)Nc1ccccc1Nc1n[nH]c2ccc(O[C@H](C)c3c(Cl)cncc3Cl)cc12,> 10000,> 10000,,,,,
C=CC(=O)Nc1cc(N2CCN(C)CC2)ccc1Nc1n[nH]c2ccc(O[C@H](C)c3c(Cl)cncc3Cl)cc12,> 10000,> 10000,6,120,290,2530,
C=CC(=O)N[C@H]1CCOC[C@H]1Nc1n[nH]c2ccc(O[C@H](C)c3c(Cl)cncc3Cl)cc12,> 10000,> 10000,,,,,IC50 [5]: > 10000 nM
C=CC(=O)N1CC[C@@H](Nc2n[nH]c3ccc(O[C@H](C)c4c(Cl)cncc4Cl)cc23)C1,> 10000,> 10000,,,,,
C=CC(=O)Nc1cc(N2CCOCC2)cc(F)c1Nc1n[nH]c2ccc(O[C@H](C)c3c(Cl)cncc3Cl)cc12,> 10000,> 10000,9.5,64,220,3760,
C=CC(=O)Nc1ccccc1Nc1n[nH]c2ccc(OC(CC)c3c(Cl)cncc3Cl)cc12 (stereo unspecified),> 10000,,,,,,
C=CC(=O)Nc1cccc(OC)c1Nc1n[nH]c2ccc(O[C@H](C)c3c(Cl)cncc3Cl)cc12,> 10000,> 10000,3560,5190,10500,4880,
C=CC(=O)Nc1cc(N2CCN(C)CC2)cc(F)c1Nc1n[nH]c2ccc(O[C@H](C)c3c(Cl)cncc3Cl)cc12,> 10000,> 10000,0.9,18,18,2060,IC50 (BaF3 [6]): 3.7 nM; IC50 [7]: 28 nM; IC50 (Huh-7 [8]): 96 nM; IC50 (BaF3 [9]): > 1000 nM; IC50 [4]: > 10000 nM; IC50 (BaF3 [10]): 2.5 nM
C=CC(=O)Nc1ccc(OC)cc1Nc1n[nH]c2ccc(O[C@H](C)c3c(Cl)cncc3Cl)cc12,> 10000,> 10000,1990,15200,30200,12500,IC50 [5]: > 10000 nM
C=CC(=O)Nc1cc(N2CCC(N3CCOCC3)CC2)ccc1Nc1n[nH]c2ccc(O[C@H](C)c3c(Cl)cncc3Cl)cc12,> 10000,> 10000,0.2,110,220,3360,IC50 [4]: > 10000 nM
C=CC(=O)Nc1cc(N2CCC(N3CCOCC3)CC2)cc(F)c1Nc1n[nH]c2ccc(O[C@H](C)c3c(Cl)cncc3Cl)cc12,> 10000,> 10000,3.5,34,29,2970,IC50 (BaF3 [6]): 8.1 nM; IC50 [7]: 54 nM; IC50 (Huh-7 [8]): 72 nM; IC50 (BaF3 [9]): > 1000 nM; inhibition [11]: Active; inhibition [12]: Active; inhibition [13]: Active; inhibition (BaF3 [14]): Active; Activity (Huh-7 [15]): Dde; inhibition in vivo at 20 mg/kg (Huh-7 [16]): 25.9%; inhibition in vivo at 40 mg/kg (Huh-7 [17]): 46.9%; Activity [18]: Non-Toxic; IC50 [4]: > 10000 nM; IC50 (BaF3 [10]): 4.7 nM

# More lines, main results first:
IC50 [1] [nM],IC50 [2] [nM],IC50 (BaF3 [3]) [nM],IC50 (MDA-MB-453) [nM],IC50 (Hep 3B2) [nM],IC50 (NCI-H1299) [nM],Compound,also measured
> 10000,> 10000,20,210,330,4760,C=CC(=O)Nc1cc(N(C)CCOC)cc(F)c1Nc1n[nH]c2ccc(O[C@H](C)c3c(Cl)cncc3Cl)cc12,
> 10000,,,,,,C=CC(=O)Nc1ccccc1Nc1n[nH]c2ccc(OCc3c(Cl)cncc3Cl)cc12,
> 10000,> 10000,1.7,10,47,1580,C=CC(=O)Nc1cc(N2CCC(N3CCN(C)CC3)CC2)cc(F)c1Nc1n[nH]c2ccc(O[C@H](C)c3c(Cl)cncc3Cl)cc12,IC50 [4]: > 10000 nM
> 10000,> 10000,> 2000,7590,16300,4580,C=CC(=O)Nc1cccc(CC)c1Nc1n[nH]c2ccc(O[C@H](C)c3c(Cl)cncc3Cl)cc12,IC50 [5]: > 10000 nM
> 10000,> 10000,,,,,C=CC(=O)Nc1ccccc1Nc1n[nH]c2ccc(OC(C)c3c(Cl)cccc3Cl)cc12 (stereo unspecified),IC50 [5]: > 10000 nM
> 10000,> 10000,,,,,C=CC(=O)N1CCC[C@@H](Nc2n[nH]c3ccc(O[C@H](C)c4c(Cl)cncc4Cl)cc23)C1,IC50 [5]: > 10000 nM
> 10000,> 10000,3,570,4440,6100,C=CC(=O)Nc1cccc(Cl)c1Nc1n[nH]c2ccc(O[C@H](C)c3c(Cl)cncc3Cl)cc12,
4770,,,,,,C=CC(=O)Nc1ccccc1Nc1n[nH]c2cc(-c3c(Cl)c(OC)cc(OC)c3Cl)ccc12,IC50 [5]: > 10000 nM
> 10000,> 10000,1.9,14,51,3000,C=CC(=O)Nc1cc(N2CCN(C3COC3)CC2)cc(F)c1Nc1n[nH]c2ccc(O[C@H](C)c3c(Cl)cncc3Cl)cc12,IC50 [4]: > 10000 nM
> 10000,> 10000,,,,,C=CC(=O)Nc1cn(C)nc1Nc1n[nH]c2ccc(O[C@H](C)c3c(Cl)cncc3Cl)cc12,
> 10000,> 10000,1.5,7,50,1600,C=CC(=O)Nc1cc(N2CCC(N(C)C)CC2)cc(F)c1Nc1n[nH]c2ccc(O[C@H](C)c3c(Cl)cncc3Cl)cc12,IC50 [4]: > 10000 nM
> 10000,> 10000,,,,,C=CC(=O)Nc1ccccc1Nc1n[nH]c2ccc(OC(C)c3c(Cl)ccc(F)c3Cl)cc12 (stereo unspecified),
949,,,,,,C=CC(=O)Nc1ccccc1Nc1n[nH]c2ccc(O[C@H](C)c3c(Cl)cncc3Cl)cc12,
238,,2.4,62,160,1070,C=CC(=O)Nc1cccc(Cl)c1Nc1ncc2cc(-c3c(Cl)c(OC)cc(OC)c3Cl)ccc2n1,IC50 (BaF3 [6]): > 100 nM; IC50 [7]: 194 nM; IC50 (Huh-7 [8]): 48 nM; IC50 (BaF3 [9]): > 1000 nM; IC50 (BaF3 [10]): > 100 nM
